Legend:
[1] = in vivo; cited from earlier work
[2] = tested on: Moderate to severe Crohn's disease (CD) subjects; assay: Phase IIa trial CD-LAQ-201: safety/tolerability (adverse events); assay type: in vivo, human
Source text: Safety/Tolerability • 1. Adverse events (AEs). • 2. Clinical laboratory values. • 3. Vital signs. • 4. ECG. • 5. Proportion of subjects who prematurely discontinue treatment. • 6. Proportion of subjects who prematurely discontinue treatment due to AEs. • 7. Time to premature treatment discontinuation. • 8. Time to premature treatment discontinuation due to AEs.

[3] = tested on: Moderate to severe Crohn's disease (CD) subjects; assay: Phase IIa trial CD-LAQ-201: clinical effect (CDAI remission, response); assay type: in vivo, human; conditions: for effects on remission and response 100: week 8
Procedure: Overall up to ˜180 Crohn's disease patients are enrolled.
The capsules were prepared using a blend proportional to the 0.6 mg capsules described in PCT International Application No. PCT/US2007/013721 (WO 2007/146248). The capsules were prepared according to the method described in PCT International Application No. PCT/US2007/013721 (WO 2007/146248), which is hereby incorporated by reference into this application.
A loading dose regimen of double the maintenance/intended dose was given during the first two days of study drug treatment. Thereafter, starting on day 3, the daily maintenance/intended dose was administered.
Subjects are required to maintain CDAI diary cards for each day of the screening period and, if randomized, on each day of the treatment and follow-up period. The scores obtained from the seven consecutive diaries completed prior to the baseline visit and to each of weeks 1, 2, 4, 6, 8 and 12 contribute to a total CDAI score at each of the time points.
Moderate to severe Crohn's disease (CD) subjects as determined by a Crohn's Disease Activity Index (CDAI) score of 220-450 (inclusive).
Each dose was studied sequentially in a distinct cohort.
Scheduled in-clinic visits were conducted at screening, baseline and at weeks 1, 2, 4, 6 and 8. […] Subjects who early-discontinues study drug prior to visit week 8 go to follow-up termination visit within 4 weeks (28 days) of study drug discontinuation.
The study exploratory efficacy outcome measures were chosen according to the draft EMEA guidelines for the treatment of active Crohn's disease/induction of remission (EMEA, 2007) • 1. Proportion of subjects in clinical remission (total CDAI score <150) at weeks 4, 6, 8 and 12 (and were not treatment failures). • 2. Proportion of subjects who respond to treatment (decrease from baseline of at least 100 points in CDAI score ore remission) at week 4, 6, 8 and 12. • 3. Time to remission. • 4. Time to response. • 5. C-Reactive Protein (CRP) change from baseline at weeks 2, 4, 6, 8 and 12. • 6. Fecal calprotectin change from baseline to weeks 2, 4, 6, 8 and 12. • 7. Proportion of subjects with a decrease from baseline of at least 50% in the number of open draining fistulas.

Compound: CCN(C(=O)c1c(O)c2c(Cl)cccc2n(C)c1=O)c1ccccc1 [laquinimod]
- oral bioavailability [1]: high
- dose response relationship for the overall incidence of AEs ([2]; 0.5-2.0 mg/day): no apparent dose response relationship
- Common Adverse Events: Abdominal Distension ([2]; Laq 0.5 mg (N = 29)): 10.3%
- Common Adverse Events: Abdominal Pain ([2]; Laq 0.5 mg (N = 29)): 17.2%
- Common Adverse Events: Abdominal Pain Upper ([2]; Laq 0.5 mg (N = 29)): 3.4%
- Common Adverse Events: Alanine Aminotransferase Increased ([2]; Laq 0.5 mg (N = 29)): 0%
- Common Adverse Events: Asthenia ([2]; Laq 0.5 mg (N = 29)): 3.4%
- Common Adverse Events: Back Pain ([2]; Laq 0.5 mg (N = 29)): 10.3%
- Common Adverse Events: Cough ([2]; Laq 0.5 mg (N = 29)): 6.9%
- Common Adverse Events: Crohn's Disease^a ([2]; Laq 0.5 mg (N = 29)): 6.9%
- Common Adverse Events: Diarrhoea ([2]; Laq 0.5 mg (N = 29)): 20.7%
- Common Adverse Events: Dizziness ([2]; Laq 0.5 mg (N = 29)): 3.4%
- Common Adverse Events: Fatigue ([2]; Laq 0.5 mg (N = 29)): 6.9%
- Common Adverse Events: Headache ([2]; Laq 0.5 mg (N = 29)): 24.1%
- Common Adverse Events: Myalgia ([2]; Laq 0.5 mg (N = 29)): 0%
- Common Adverse Events: Nausea ([2]; Laq 0.5 mg (N = 29)): 3.4%
- Common Adverse Events: Pyrexia ([2]; Laq 0.5 mg (N = 29)): 24.1%
- Common Adverse Events: Rectal Haemorrhage ([2]; Laq 0.5 mg (N = 29)): 0%
- Common Adverse Events: Tachycardia ([2]; Laq 0.5 mg (N = 29)): 0%
- Common Adverse Events: Vomiting ([2]; Laq 0.5 mg (N = 29)): 17.2%
- Common Adverse Events: Abdominal Distension ([2]; Laq 1.0 mg (N = 30)): 0%
- Common Adverse Events: Abdominal Pain ([2]; Laq 1.0 mg (N = 30)): 13.3%
- Common Adverse Events: Abdominal Pain Upper ([2]; Laq 1.0 mg (N = 30)): 0%
- Common Adverse Events: Alanine Aminotransferase Increased ([2]; Laq 1.0 mg (N = 30)): 10%
- Common Adverse Events: Asthenia ([2]; Laq 1.0 mg (N = 30)): 6.7%
- Common Adverse Events: Back Pain ([2]; Laq 1.0 mg (N = 30)): 10%
- Common Adverse Events: Cough ([2]; Laq 1.0 mg (N = 30)): 10%
- Common Adverse Events: Crohn's Disease^a ([2]; Laq 1.0 mg (N = 30)): 16.7%
- Common Adverse Events: Diarrhoea ([2]; Laq 1.0 mg (N = 30)): 3.3%
- Common Adverse Events: Dizziness ([2]; Laq 1.0 mg (N = 30)): 3.3%
- Common Adverse Events: Fatigue ([2]; Laq 1.0 mg (N = 30)): 0%
- Common Adverse Events: Headache ([2]; Laq 1.0 mg (N = 30)): 26.7%
- Common Adverse Events: Myalgia ([2]; Laq 1.0 mg (N = 30)): 3.3%
- Common Adverse Events: Nausea ([2]; Laq 1.0 mg (N = 30)): 20%
- Common Adverse Events: Pyrexia ([2]; Laq 1.0 mg (N = 30)): 3.3%
- Common Adverse Events: Rectal Haemorrhage ([2]; Laq 1.0 mg (N = 30)): 3.3%
- Common Adverse Events: Tachycardia ([2]; Laq 1.0 mg (N = 30)): 0%
- Common Adverse Events: Vomiting ([2]; Laq 1.0 mg (N = 30)): 20%
- Common Adverse Events: Abdominal Distension ([2]; Laq 1.5 mg (N = 29)): 3.4%
- Common Adverse Events: Abdominal Pain ([2]; Laq 1.5 mg (N = 29)): 24.1%
- Common Adverse Events: Abdominal Pain Upper ([2]; Laq 1.5 mg (N = 29)): 6.9%
- Common Adverse Events: Alanine Aminotransferase Increased ([2]; Laq 1.5 mg (N = 29)): 0%
- Common Adverse Events: Asthenia ([2]; Laq 1.5 mg (N = 29)): 10.3%
- Common Adverse Events: Back Pain ([2]; Laq 1.5 mg (N = 29)): 13.8%
- Common Adverse Events: Cough ([2]; Laq 1.5 mg (N = 29)): 6.9%
- Common Adverse Events: Crohn's Disease^a ([2]; Laq 1.5 mg (N = 29)): 17.2%
- Common Adverse Events: Diarrhoea ([2]; Laq 1.5 mg (N = 29)): 0%
- Common Adverse Events: Dizziness ([2]; Laq 1.5 mg (N = 29)): 10.3%
- Common Adverse Events: Fatigue ([2]; Laq 1.5 mg (N = 29)): 10.3%
- Common Adverse Events: Headache ([2]; Laq 1.5 mg (N = 29)): 24.1%
- Common Adverse Events: Myalgia ([2]; Laq 1.5 mg (N = 29)): 0%
- Common Adverse Events: Nausea ([2]; Laq 1.5 mg (N = 29)): 6.9%
- Common Adverse Events: Pyrexia ([2]; Laq 1.5 mg (N = 29)): 20.7%
- Common Adverse Events: Rectal Haemorrhage ([2]; Laq 1.5 mg (N = 29)): 10.3%
- Common Adverse Events: Tachycardia ([2]; Laq 1.5 mg (N = 29)): 10.3%
- Common Adverse Events: Vomiting ([2]; Laq 1.5 mg (N = 29)): 3.4%
- Common Adverse Events: Abdominal Distension ([2]; Laq 2.0 mg (N = 29)): 3.4%
- Common Adverse Events: Abdominal Pain ([2]; Laq 2.0 mg (N = 29)): 24.1%
- Common Adverse Events: Abdominal Pain Upper ([2]; Laq 2.0 mg (N = 29)): 17.2%
- Common Adverse Events: Alanine Aminotransferase Increased ([2]; Laq 2.0 mg (N = 29)): 3.4%
- Common Adverse Events: Asthenia ([2]; Laq 2.0 mg (N = 29)): 6.9%
- Common Adverse Events: Back Pain ([2]; Laq 2.0 mg (N = 29)): 3.4%
- Common Adverse Events: Cough ([2]; Laq 2.0 mg (N = 29)): 3.4%
- Common Adverse Events: Crohn's Disease^a ([2]; Laq 2.0 mg (N = 29)): 13.8%
- Common Adverse Events: Diarrhoea ([2]; Laq 2.0 mg (N = 29)): 10.3%
- Common Adverse Events: Dizziness ([2]; Laq 2.0 mg (N = 29)): 3.4%
- Common Adverse Events: Fatigue ([2]; Laq 2.0 mg (N = 29)): 0%
- Common Adverse Events: Headache ([2]; Laq 2.0 mg (N = 29)): 44.8%
- Common Adverse Events: Myalgia ([2]; Laq 2.0 mg (N = 29)): 17.2%
- Common Adverse Events: Nausea ([2]; Laq 2.0 mg (N = 29)): 20.7%
- Common Adverse Events: Pyrexia ([2]; Laq 2.0 mg (N = 29)): 13.8%
- Common Adverse Events: Rectal Haemorrhage ([2]; Laq 2.0 mg (N = 29)): 0%
- Common Adverse Events: Tachycardia ([2]; Laq 2.0 mg (N = 29)): 3.4%
- Common Adverse Events: Vomiting ([2]; Laq 2.0 mg (N = 29)): 20.7%
- tolerability ([2]; active Crohns disease): well tolerated
- change from Baseline in biochemical or hematological parameters ([2]; any of the dose groups): no consistent trends in change from Baseline
- deaths during the study ([2]; in vivo): No subject died
- severity of most AEs ([2]; in vivo): mild or moderate
- changes in vital signs or ECGs ([2]; laquinimod dose groups): no clinically significant changes
- most common SAE: CD (exacerbation), % of patients ([2]; laquinimod groups, pooled placebo 1.6%): 3.4-6.9%
- overall incidence of AEs ([2]; laquinimod groups, pooled placebo 82.5%): 86.2-96.7%
- effects on remission and response 100 ([3]; 0.5 mg/day): effects on remission and response 100 were observed
- effects on remission and response 100 ([3]; 1 mg/day): lower magnitude effects
- effects on remission and response (conclusion) ([3]; 0.5 and 1 mg doses): clinically relevant effects
- time at which clinical remission was achieved ([3]; laquinimod 0.5 mg/day group): ≥ 2 week
- time at which response 100 was achieved ([3]; laquinimod 0.5 mg/day group): 7 days
- time to clinical remission and response 100 versus pooled placebo ([3]; laquinimod 0.5 mg/day group): earlier than patients in the pooled placebo group
